Laboratory results reported in paper PMC11012124, “Synthesis of Novel Triazine-Based Chalcones and 8,9-dihydro-7H-pyrimido[4,5-b][1,4]diazepines as Potential Leads in the Search of Anticancer, Antibacterial and Antifungal Agents” (International Journal of Molecular Sciences, 2024).

Experiments:
[1] = system: UO-31; experiment: cells; conditions: Homo sapiens, UO-31, 48 h
[2] = system: MDA-MB-231/ATCC; experiment: cells; conditions: Homo sapiens, MDA-MB-231, 48 h
[3] = system: HOP-92; experiment: cells; conditions: Homo sapiens, HOP-92, 48 h
[4] = system: LOX IMVI; experiment: cells; conditions: Homo sapiens, 48 h
[5] = system: A549/ATCC; experiment: cells; conditions: Homo sapiens, A549, 48 h
[6] = system: HT29; experiment: cells; conditions: Homo sapiens, HT-29, 48 h
[7] = system: RPMI-8226; experiment: cells; conditions: Homo sapiens, RPMI-8226, 48 h
[8] = system: NCI-H23; experiment: cells; conditions: Homo sapiens, NCI-H23, 48 h
[9] = system: COLO 205; experiment: cells; conditions: Homo sapiens, COLO 205, 48 h
[10] = system: SN12C; experiment: cells; conditions: Homo sapiens, 48 h
[11] = system: A498; experiment: cells; conditions: Homo sapiens, A498, 48 h, read-out: LC50
[12] = system: HCT-116; experiment: cells; conditions: Homo sapiens, HCT-116, 48 h
[13] = system: NCI-H522; experiment: cells; conditions: Homo sapiens, NCI-H522, 48 h
[14] = system: SK-MEL-5; experiment: cells; conditions: Homo sapiens, SK-MEL-5, 48 h
[15] = system: MDA-MB-468; experiment: cells; conditions: Homo sapiens, MDA-MB-468, 48 h
[16] = system: 60 cancer cell lines; experiment: NCI-60 one-dose screen (10 μM); assay type: cell-based; conditions: Homo sapiens; one dose of 10 μM, mean over 60 cancer cell lines; read-out: Mean Growth Percent (MGP)
Text: Additionally, the mean of the growth percentages (MGP) of each compound against all the 60 cancer cell lines is also reported, which is used as one of the selection criteria to continue with tests at five concentration doses.

[17] = system: M14; experiment: cells; conditions: Homo sapiens, M14, 48 h
[18] = system: HCT-15; experiment: cells; conditions: Homo sapiens, HCT-15, 48 h
[19] = system: SK-MEL-2; experiment: cells; conditions: Homo sapiens, SK-MEL-2, 48 h
[20] = system: SF-539; experiment: cells; conditions: Homo sapiens, SF-539, 48 h
[21] = system: UACC-257; experiment: cells; conditions: Homo sapiens, UACC-257, 48 h
[22] = system: NCI-H460; experiment: cells; conditions: Homo sapiens, NCI-H460, 48 h
[23] = system: MOLT-4; experiment: cells; conditions: Homo sapiens, MOLT-4, 48 h
[24] = system: OVCAR-5; experiment: cells; conditions: Homo sapiens, OVCAR-5, 48 h
[25] = system: SF-295; experiment: cells; conditions: Homo sapiens, SF-295, 48 h
[26] = system: MCF7; experiment: cells; conditions: Homo sapiens, MCF7, 48 h
[27] = system: DU-145; experiment: cells; conditions: Homo sapiens, DU-145, 48 h
[28] = system: KM12; experiment: cells; conditions: Homo sapiens, KM12, 48 h
[29] = system: OVCAR-4; experiment: cells; conditions: Homo sapiens, OVCAR-4, 48 h
[30] = system: 786-0; experiment: cells; conditions: Homo sapiens, 786-0, 48 h
[31] = system: SNB-75; experiment: cells; conditions: Homo sapiens, SNB-75, 48 h
[32] = system: HL-60(TB); experiment: cells; conditions: Homo sapiens, HL-60, 48 h
[33] = system: U251; experiment: cells; conditions: Homo sapiens, U-251, 48 h
[34] = system: T-47D; experiment: cells; conditions: Homo sapiens, T47D, 48 h
[35] = system: TK-10; experiment: cells; conditions: Homo sapiens, TK-10, 48 h
[36] = system: SK-OV-3; experiment: cells; conditions: Homo sapiens, SK-OV-3, 48 h
[37] = system: NCI-H226; experiment: cells; conditions: Homo sapiens, NCI-H226, 48 h

CN(C)c1nc(NCCNS(=O)(=O)c2ccc(C3=Nc4c(N)nc(N)nc4NC(c4ccccc4)C3)cc2)nc(Nc2ccc(F)cc2)n1 (stereo not drawn) [31a]
GI50 [1]: > 100 µM
CC50 ([1]; read-out: LC50): > 100 µM
GI50 [2]: 6.16 µM
CC50 ([2]; read-out: LC50): 67.6 µM
GI50 [3]: 2.18 µM
CC50 ([3]; read-out: LC50): 9.96 µM
GI50 [4]: 9.96 µM
CC50 ([4]; read-out: LC50, LOX IMVI, 48 h): 25.7 µM
GI50 [5]: > 100 µM
CC50 ([5]; read-out: LC50): > 100 µM
GI50 [6]: 5.32 µM
CC50 ([6]; read-out: LC50): > 100 µM
GI50 [7]: 3.32 µM
CC50 ([7]; read-out: LC50): > 100 µM
GI50 [8]: > 100 µM
CC50 ([8]; read-out: LC50): > 100 µM
GI50 [9]: 16.4 µM
CC50 ([9]; read-out: LC50): > 100 µM
GI50 [10]: 7.83 µM
CC50 ([10]; read-out: LC50): > 100 µM
CC50 [11]: > 100 µM
GI50 [12]: 7.37 µM
CC50 ([12]; read-out: LC50): > 100 µM
GI50 [13]: 77.4 µM
CC50 ([13]; read-out: LC50): > 100 µM
GI50 [14]: 5.81 µM
CC50 ([14]; read-out: LC50): 20.5 µM
GI50 [15]: 3.37 µM
CC50 ([15]; read-out: LC50): 13.7 µM
activity at 10 µM [16]: 40.4%
GI50 [17]: 24.4 µM
CC50 ([17]; read-out: LC50): > 100 µM
GI50 [18]: > 100 µM
CC50 ([18]; read-out: LC50): > 100 µM
GI50 [19]: 28.5 µM
CC50 ([19]; read-out: LC50): > 100 µM
GI50 [20]: 12 µM
CC50 ([20]; read-out: LC50, SF-539, 48 h): 63.8 µM
GI50 [21]: 87.2 µM
CC50 ([21]; read-out: LC50): > 100 µM
GI50 [22]: 6.49 µM
CC50 ([22]; read-out: LC50): > 100 µM
GI50 [23]: 3.11 µM
CC50 ([23]; read-out: LC50): > 100 µM
GI50 [24]: > 100 µM
CC50 ([24]; read-out: LC50): > 100 µM
GI50 [25]: 9.49 µM
CC50 ([25]; read-out: LC50): > 100 µM
GI50 [26]: 3.85 µM
CC50 ([26]; read-out: LC50): 85.5 µM
GI50 [27]: > 100 µM
CC50 ([27]; read-out: LC50): > 100 µM
GI50 [28]: 8.8 µM
CC50 ([28]; read-out: LC50): > 100 µM
GI50 [29]: 74.6 µM
CC50 ([29]; read-out: LC50): > 100 µM
GI50 [30]: 7.88 µM
CC50 ([30]; read-out: LC50): > 100 µM
GI50 [31]: 3.58 µM
CC50 ([31]; read-out: LC50): > 100 µM
GI50 [32]: 4.24 µM
CC50 ([32]; read-out: LC50): > 100 µM
GI50 ([33]; U251, 48 h): 18.4 µM
CC50 ([33]; read-out: LC50): > 100 µM
GI50 [34]: 5.12 µM
CC50 ([34]; read-out: LC50): > 100 µM
GI50 [35]: > 100 µM
CC50 ([35]; read-out: LC50): > 100 µM
GI50 [36]: > 100 µM
CC50 ([36]; read-out: LC50): > 100 µM
GI50 [37]: > 100 µM
CC50 ([37]; read-out: LC50): > 100 µM
